The source of these data is ChEMBL document CHEMBL1144475, “Design, synthesis, and evaluation of inhibitors for severe acute respiratory syndrome 3C-like protease based on phthalhydrazide ketones or heteroaromatic esters” (J Med Chem, 2007).

Non-standard residues stand in square brackets, D forms with d. Residues, ends and D or L forms follow the SMILES beside them. *: point of attachment. Ala(2-oxopyrrolidin-3S-yl) = N[C@@H](C[C@@H]1CCNC1=O)C(=O)O; X1 = Clc1cncc(O*)c1; Bn = c1ccc(C*)cc1 A value given as a limit tells only on which side of the number the result lay.

In one test the target is Replicase polyprotein 1a (Severe acute respiratory syndrome-related coronavirus) (UniProt P0C6U8). Briefly: Inhibition of SARS coronavirus His-3C-like protease at 100 uM.
Turning to `O=C(Oc1cncc(Cl)c1)c1ccoc1`, the inhibition was determined as 89%.

Compound `O=C(Oc1cccc(Cl)c1)c1ccco1` came in with an inhibition of 40%.

In the case of `O=Cc1cccs1`, the inhibition is less than 10%.

For the compound `Cc1ccc(OC(=O)c2cccs2)nc1`, the inhibition is less than 10%.

`CC(=O)N[C@H](C(=O)N[C@H](C(=O)N[C@@H](CC(C)C)C(=O)N[C@@H](C[C@@H]1CCNC1=O)C(=O)c1cccs1)[C@@H](C)OCc1ccccc1)C(C)C` came in with an inhibition of less than 10%.

Take `Cc1cccc(OC(=O)c2cccs2)n1`: the inhibition amounted to 38%.

The compound `O=C(OCc1cncc(Br)c1)c1ccco1` came in with an inhibition of 90%.

In turn, `O=C(Oc1cncc(Cl)c1)c1ccccc1` gave an inhibition of 92%.

Compound `O=C(Oc1ccco1)c1cccnc1` displayed an inhibition of 80%.

Regarding `Cc1ncccc1OC(=O)c1cccs1`, the inhibition is less than 10%.

Consider `O=C(Cc1cccnc1)c1cccs1`, for which the inhibition was less than 10%.

For `O=C(Oc1ccccn1)c1cccs1`, the inhibition is 13%.

As for `O=C(Oc1cccnc1)c1cccs1`, the inhibition was 91%.

With `O=C(Nc1cccnc1Cl)c1cccs1`, the inhibition was less than 10%.

For `O=Cc1cc2ccccc2[nH]1`, the inhibition worked out at 39%.

`O=C(Oc1cncc(Cl)c1)c1ccc[nH]1` had an inhibition of 65%.

As to `CC(=O)N[C@H](C(=O)N[C@H](C(=O)N[C@@H](CC(C)C)C(=O)N[C@@H](Cc1ccccc1)C(=O)Cn1[nH]c(=O)c2ccccc2c1=O)[C@@H](C)OCc1ccccc1)C(C)C`, the inhibition stood at 72%.

As to `O=C(Oc1cccnc1Cl)c1cccs1`, the inhibition came out at 20%.

Compound `O=Cc1ccc(-c2ccc(Cl)cc2)o1` registered an inhibition of 70%.

`O=S(=O)(Nc1cccnc1)c1cccs1` showed an inhibition of less than 10%.

Regarding `O=C(Oc1ccncc1)c1cccs1`, the inhibition is less than 10%.

In turn, `CC(=O)N[C@H](C(=O)N[C@H](C(=O)N[C@@H](CC(C)C)C(=O)N[C@@H](C[C@@H]1CCNC1=O)C(=O)c1cccs1)[C@@H](C)O)C(C)C` had an inhibition of 23%.

Consider `O=C(Nc1cccnc1)c1cccs1`, for which the inhibition is 13%.

In turn, `O=C(OCc1cccnc1)c1cccs1` gave an inhibition of 19%.

Compound `O=C(Oc1cncc(Cl)c1)c1ccco1` had an inhibition of 99%.

Turning to `O=C(Cc1cncc(Br)c1)c1ccco1`, the inhibition was less than 10%.

`O=Cc1ccco1` returned an inhibition of 23%.

Compound `O=C(Oc1ccc(Cl)nc1)c1cccs1` had an inhibition of 13%.

For `O=C(Nc1ccc(Cl)cn1)c1cccs1`, the inhibition was less than 10%.

`Cc1ccc(OC(=O)c2cccs2)c([N+](=O)[O-])n1`: the inhibition was determined as 15%.

In turn, `Clc1cncc(OCc2ccco2)c1` had an inhibition of 11%.

With `CC(=O)N[C@H](C(=O)N[C@H](C(=O)N[C@@H](CC(C)C)C(=O)N[C@@H](C[C@@H]1CCNC1=O)C(=O)Oc1cncc(Cl)c1)[C@@H](C)OCc1ccccc1)C(C)C` (Ac-VT(Bn)L[Ala(2-oxopyrrolidin-3S-yl)]-X1), the inhibition was less than 10%.

`Cc1ccc(OC(=O)c2cccs2)cn1` had an inhibition of less than 10%.

As to `O=C(Nc1ccncc1)c1cccs1`, the inhibition was less than 10%.

`O=C(Nc1ccccn1)c1cccs1`: the inhibition was less than 10%.

As for `O=Cc1cscn1`, the inhibition was 36%.

`O=C(Oc1cncc(Cl)c1)c1cc2ccccc2o1` displayed an inhibition of 94%.

`O=C(Oc1cccc(Cl)n1)c1cccs1` returned an inhibition of less than 10%.

Consider `O=C(Oc1cncc(Br)c1)c1ccco1`, for which the inhibition was 99%.

Compound `O=C(Nc1ccc(F)cn1)c1cccs1` yielded an inhibition of less than 10%.

A further test has as its target Replicase polyprotein 1a (Severe acute respiratory syndrome-related coronavirus, UniProt P0C6U8). Briefly: Inhibition of SARS coronavirus 3C-like protease.
`O=C(Oc1cncc(Cl)c1)c1cscn1`: the half-maximal inhibitory concentration (IC50) came to 270 nM.

For the compound `O=C(Oc1cncc(Cl)c1)c1ccc(-c2ccc(Cl)cc2)o1`, inhibition was half-maximal at 63 nM (IC50).

With `O=C(Oc1cncc(Cl)c1)c1ccco1`, the IC50 worked out at 60 nM.

As for `O=C(Oc1cncc(Cl)c1)c1cc2ccccc2[nH]1`, half-maximal inhibition (IC50) was put at 65 nM.

Regarding `O=C(Oc1cncc(Cl)c1)c1cc2ccccc2s1`, the IC50 was 95 nM.

Turning to `O=C(Oc1cncc(Cl)c1)c1cc2ccccc2o1`, the IC50 worked out at 170 nM.

`O=C(Oc1cncc(Br)c1)c1ccco1` came in with a half-inhibitory concentration (IC50) of 50 nM.

The target in the next test is Replicase polyprotein 1a (Severe acute respiratory syndrome-related coronavirus) (UniProt P0C6U8). Briefly: Inhibition of SARS coronavirus 3C-like protease at 1 uM.
Compound `O=C(Oc1cncc(Cl)c1)c1cscn1` came in with an inhibition of 98%.

`O=C(Oc1cncc(Cl)c1)c1ccc(-c2ccc(Cl)cc2)o1` came in with an inhibition of 98%.

`COc1cccc(C(=O)Oc2cncc(Cl)c2)c1` returned an inhibition of 97%.

With `O=C(Oc1cncc(Cl)c1)c1cc2ccccc2[nH]1`, the inhibition worked out at 99%.

`O=C(Oc1cncc(Cl)c1)c1cc2ccccc2s1` returned an inhibition of 96%.

Compound `O=C(Oc1cncc(Br)c1)c1ccco1` gave an inhibition of 98%.

As a reminder, the inhibition is the percentage by which the read-out fell short of the control. Lower therefore signals a response near the control. In general, IC50 refers to the point on the concentration scale where inhibition reaches its midpoint.
